The values that follow come from patent publication US9040516B2, “Uracil derivative and use thereof for medical purposes” (SUMITOMO DAINIPPON PHARMA CO., LTD., priority 2011, dated 2015).

The structures appear in SMILES notation.

For the test, the target named is T1, human neutrophil elastase (Homo sapiens, UniProt P08246).
T1 construct: purchased Elastin Products Company
T1 sequence (P08246 30-267): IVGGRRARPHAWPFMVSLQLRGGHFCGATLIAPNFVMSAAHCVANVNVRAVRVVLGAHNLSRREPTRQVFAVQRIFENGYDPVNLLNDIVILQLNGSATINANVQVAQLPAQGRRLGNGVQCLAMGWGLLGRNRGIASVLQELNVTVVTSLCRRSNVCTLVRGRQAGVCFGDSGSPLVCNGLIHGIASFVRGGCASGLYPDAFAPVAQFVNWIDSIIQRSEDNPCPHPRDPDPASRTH
Nature of the test: Inhibitory action 2 against human neutrophil elastase (Test Example 2; fluorogenic substrate MeOSuc-AAPV-AMC, buffer with 400 mM NaCl, 0.2 mg/ml BSA). Format: biochemical. The settings on record: 37° C., read-out: IC50 value (compound concentration required for 50% inhibition of human neutrophil elastase). As to the method: Assay buffer (0.4 unit/ml HNE (human neutrophil elastase, available from Elastin Products Company), 200 mM HEPES [N-(2-hydroxyethyl)piperazine-N′-(2-ethanesulfonic acid)], pH 7.5, 400 mM NaCl, 0.2 mg/ml BSA (bovine serum albumin)) 100 μl, water for injection 20 μl and 1% DMSO (dimethyl sulfoxide) solution of the present compound 20 μl were mixed in a 96 well plate and the mixed solutions were pre-incubated at 37° C. for five minutes. After pre-incubation, MeOSuc-AAPV-AMC (methoxysuccinyl-alanyl-alanyl-prolyl-valyl-aminomethyl cumaride (available from Sigma Aldrich Corp.) solution as fluorogenic substrate (which was dissolved in 10% DMSO solution so as to adjust to 0.5 mM) 40 μl was added to the above-prepared mixed solution so as to initiate the reaction, and the mixture was incubated at 37° C. for five minutes. The fluorescence intensity of AMC was measured at an excitation wavelength of 380 nm and a fluorescence wavelength of 460 nm and the inhibition ratio was determined.
`Cc1c(-c2c(S(C)(=O)=O)cnn2-c2ccc(C#N)cc2)c(=O)n(C(C)C)c(=O)n1-c1cccc(C(F)(F)F)c1` (racemic) [Example 276, (±)-4-(5-(3-Isopropyl-6-methyl-2,4-dioxo-1-(3-trifluoromethylphenyl)-1,2,3,4-tetrahydropyrimidin-5-yl-4-(methylsulfonyl)-1H-pyrazol-1-yl)benzonitrile]: the IC50 is 12 nM.

As to `Cc1c(-c2c(S(N)(=O)=O)cnn2-c2ccc(C#N)cc2)c(=O)n(C)c(=O)n1-c1cccc(C(F)(F)F)c1` (single isomer, unassigned) [Example 209, (+)-1-(4-cyanophenyl)-5-(3,6-dimethyl-2,4-dioxo-1-(3-trifluoromethylphenyl)-1,2,3,4-tetrahydropyrimidin-5-yl)-1H-pyrazole-4-sulfonamide], the IC50 was 9.3 nM.

Regarding `Cc1c(-c2c(S(C)(=O)=O)cnn2-c2ccc(C#N)cc2)c(=O)n(C)c(=O)n1-c1cccc(C(F)(F)F)c1` (single isomer, unassigned) [Example 267], the IC50 was 11.6 nM.

For the compound `CCn1c(=O)c(-c2ccnn2-c2ccc(C#N)cc2)c(C)n(-c2cccc(C(F)(F)F)c2)c1=O` [Example 41, 4-(5-(3-ethyl-6-methyl-2,4-dioxo-1-(3-(trifluoromethyl)phenyl)-1,2,3,4-tetrahydropyrimidin-5-yl)-1H-pyrazol-1-yl)benzonitrile], the IC50 was determined as 12.6 nM.

For `Cc1c(-c2ccnn2-c2ccc(C#N)cc2)c(=O)n(C(C)C)c(=O)n1-c1cccc(C(F)(F)F)c1` [Example 42, 4-(5-(3-isopropyl-6-methyl-2,4-dioxo-1-(3-(trifluoromethyl)phenyl)-1,2,3,4-tetrahydropyrimidin-5-yl)-1H-pyrazol-1-yl)benzonitrile], the IC50 was 3.5 nM.

On to `CCc1c(-c2ccnn2-c2ccc(C#N)cc2)c(=O)n(C)c(=O)n1-c1cccc(C(F)(F)F)c1` [Example 50, 4-(5-(6-ethyl-3-methyl-2,4-dioxo-1-(3-(trifluoromethyl)phenyl)-1,2,3,4-tetrahydropyrimidin-5-yl)-1H-pyrazol-1-yl)benzonitrile], for which the IC50 came out at 13.7 nM.

For `Cc1c(-c2ccnn2-c2ccc(C#N)cc2)c(=O)n([C@H](C)CO)c(=O)n1-c1cccc(C(F)(F)F)c1` [Example 55, (R)-4-(5-(3-(1-hydroxypropan-2-yl)-6-methyl-2,4-dioxo-1-(3-(trifluoromethyl)phenyl)-1,2,3,4-tetrahydropyrimidin-5-yl)-1H-pyrazol-1-yl)benzonitrile], the IC50 came out at 4.9 nM.

For the compound `Cc1c(-n2cnnc2-c2ccc(C#N)cc2)c(=O)n(C(C)C)c(=O)n1-c1cccc(C(F)(F)F)c1` [Example 65, 4-(4-(3-Isopropyl-6-methyl-2,4-dioxo-1-(3-(trifluoromethyl)phenyl)-1,2,3,4-tetrahydropyrimidin-5-yl)-4H-1,2,4-triazol-3-yl)benzonitrile], the IC50 stood at 5.5 nM.

Take `N#Cc1ccc(-n2nccc2-c2cn(-c3cccc(C(F)(F)F)c3)c(=O)n([C@@H]3CNC(=O)C3)c2=O)cc1` [Example 90]: the IC50 turned out to be 353 nM.

Regarding `Cc1c(-c2c(C(=O)N(C)C)cnn2-c2ccc(C#N)cc2)c(=O)n(C(C)C)c(=O)n1-c1cccc(C(F)(F)F)c1` [Example 153], the IC50 amounted to 5.4 nM.

Take `CCn1c(=O)c(-c2c(C(=O)N3CC(O)C3)cnn2-c2ccc(C#N)cc2)c(C)n(-c2cccc(C(F)(F)F)c2)c1=O` [Example 156]: the IC50 was 10 nM.

Regarding `CCn1c(=O)c(-c2c(C(=O)N(C)CCO)cnn2-c2ccc(C#N)cc2)c(C)n(-c2cccc(C(F)(F)F)c2)c1=O` [Example 176], the IC50 was found to be 11.4 nM.

In the case of `COCCNC(=O)c1cnn(-c2ccc(C#N)cc2)c1-c1c(C)n(-c2cccc(C(F)(F)F)c2)c(=O)n(C)c1=O` [Example 178], the IC50 came out at 13.5 nM.

As for `Cc1c(-c2c(C(=O)NC3CC3)cnn2-c2ccc(C#N)cc2)c(=O)n(C)c(=O)n1-c1cccc(C(F)(F)F)c1` [Example 179], the IC50 stood at 8.7 nM.

Regarding `Cc1c(-c2c(C(=O)OCCCCN(C)C)cnn2-c2ccc(C#N)cc2)c(=O)n(C)c(=O)n1-c1cccc(C(F)(F)F)c1` [Example 187, 4-(dimethylamino)butyl 1-(4-cyanophenyl)-5-(3,6-dimethyl-2,4-dioxo-1-(3-trifluoromethylphenyl)-1,2,3,4-tetrahydropyrimidin-5-yl)-1H-pyrazole-4-carboxylate], the IC50 is 19.4 nM.

Regarding `COC(=O)c1cnn(-c2ccc(C#N)cc2)c1-c1c(C)n(-c2cccc(C(F)(F)F)c2)c(=O)n(C)c1=O` [Example 188], the IC50 was 18.6 nM.

As for `Cc1c(-c2c(S(=O)(=O)O)cnn2-c2ccc(C#N)cc2)c(=O)n(C)c(=O)n1-c1cccc(C(F)(F)F)c1` [Example 191, 1-(4-cyanophenyl)-5-(3,6-dimethyl-2,4-dioxo-1-(3-trifluoromethylphenyl)-1,2,3,4-tetrahydropyrimidin-5-yl)-1H-pyrazole-4-sulfonic acid], the IC50 was determined as 23.1 nM.

As for `Cc1c(-c2c(S(=O)(=O)O)cnn2-c2ccc(C#N)cc2)c(=O)n(C)c(=O)n1-c1cccc(C(F)(F)F)c1` [Example 196], the IC50 is 8.4 nM.

`Cc1c(-c2c(S(N)(=O)=O)cnn2-c2ccc(C#N)cc2)c(=O)n(C)c(=O)n1-c1cccc(C(F)(F)F)c1` [Example 205, 1-(4-cyanophenyl)-5-(3,6-dimethyl-2,4-dioxo-1-(3-trifluoromethylphenyl)-1,2,3,4-tetrahydropyrimidin-5-yl)-1H-pyrazole-4-sulfonamide]: the IC50 was 15 nM.

On to `Cc1c(-c2c(S(N)(=O)=O)cnn2-c2ccc(C#N)cc2)c(=O)n(C(C)C)c(=O)n1-c1cccc(C(F)(F)F)c1` [Example 206], for which the IC50 was 9.3 nM.

Take `Cc1c(-c2c(S(N)(=O)=O)cnn2-c2ccc(C#N)cc2)c(=O)n(C)c(=O)n1-c1cccc(C(F)(F)F)c1` [Example 211, (+)-1-(4-cyanophenyl)-5-(3,6-dimethyl-2,4-dioxo-1-(3-trifluoromethylphenyl)-1,2,3,4-tetrahydropyrimidin-5-yl)-1H-pyrazole-4-sulfonamide 0.5 IPA solvates]: the IC50 turned out to be 8.8 nM.

On to `CNS(=O)(=O)c1cnn(-c2ccc(C#N)cc2)c1-c1c(C)n(-c2cccc(C(F)(F)F)c2)c(=O)n(C)c1=O` [Example 218], for which the IC50 is 14.7 nM.

In the case of `Cc1c(-c2c(S(=O)(=O)N3CCOCC3)cnn2-c2ccc(C#N)cc2)c(=O)n(C)c(=O)n1-c1cccc(C(F)(F)F)c1` [Example 221], the IC50 came out at 19.8 nM.

As to `Cc1c(-c2c(S(=O)(=O)NCCO)cnn2-c2ccc(C#N)cc2)c(=O)n(C)c(=O)n1-c1cccc(C(F)(F)F)c1` [Example 227], the IC50 was 7.8 nM.

As for `Cc1c(-c2c(S(=O)(=O)N3CCOC3=O)cnn2-c2ccc(C#N)cc2)c(=O)n(C)c(=O)n1-c1cccc(C(F)(F)F)c1` [Example 239], the IC50 was 7.7 nM.

For the compound `CCCCC(=O)NS(=O)(=O)c1cnn(-c2ccc(C#N)cc2)c1-c1c(C)n(-c2cccc(C(F)(F)F)c2)c(=O)n(C)c1=O` [Example 243], the IC50 came out at 5.4 nM.

Turning to `Cc1c(-c2c(S(=O)(=O)NC(=O)c3ccccc3)cnn2-c2ccc(C#N)cc2)c(=O)n(C)c(=O)n1-c1cccc(C(F)(F)F)c1` [Example 249], the IC50 was 11.9 nM.

Regarding `COC(=O)NS(=O)(=O)c1cnn(-c2ccc(C#N)cc2)c1-c1c(C)n(-c2cccc(C(F)(F)F)c2)c(=O)n(C)c1=O` [Example 252], the IC50 came out at 20.6 nM.

Take `CCNC(=O)NS(=O)(=O)c1cnn(-c2ccc(C#N)cc2)c1-c1c(C)n(-c2cccc(C(F)(F)F)c2)c(=O)n(C)c1=O` [Example 257]: the IC50 is 7.7 nM.

Turning to `Cc1c(-c2c(S(=O)(=O)NC(=O)C3CCCCC3)cnn2-c2ccc(C#N)cc2)c(=O)n(C)c(=O)n1-c1cccc(C(F)(F)F)c1` [Example 261], the IC50 was found to be 7.2 nM.

On to `Cc1c(-c2c(S(C)(=O)=O)cnn2-c2ccc(C#N)cc2)c(=O)n(C)c(=O)n1-c1cccc(C(F)(F)F)c1` [Example 265], for which the IC50 came to 23.7 nM.

In the case of `CCn1c(=O)c(-c2c(C(C)(C)O)cnn2-c2ccc(C#N)cc2)c(C)n(-c2cccc(C(F)(F)F)c2)c1=O` [Example 288, 4-(5-(3-ethyl-6-methyl-2,4-dioxo-1-(3-trifluoromethylphenyl)-1,2,3,4-tetrahydropyrimidin-5-yl)-4-(2-hydroxypropan-2-yl)-1H-pyrazol-1-yl)benzonitrile], the IC50 was found to be 26.2 nM.

As to `Cc1c(-c2c(C3(O)CCS(=O)(=O)CC3)cnn2-c2ccc(C#N)cc2)c(=O)n(C)c(=O)n1-c1cccc(C(F)(F)F)c1` [Example 293], the IC50 stood at 25.1 nM.

As for `CCn1c(=O)c(-c2c(C(C)(C)N)cnn2-c2ccc(C#N)cc2)c(C)n(-c2cccc(C(F)(F)F)c2)c1=O` [Example 297, 4-(4-(2-aminopropane-2-yl)-5-(3-ethyl-6-methyl-2,4-dioxo-1-(3-trifluoromethylphenyl)-1,2,3,4-tetrahydropyrimidin-5-yl)-1H-pyrazol-1-yl)benzonitrile], the IC50 worked out at 29.7 nM.

Consider `CCn1c(=O)c(-c2c(C3(N)CCC3)cnn2-c2ccc(C#N)cc2)c(C)n(-c2cccc(C(F)(F)F)c2)c1=O` [Example 298], for which the IC50 stood at 42.7 nM.

As to `Cc1c(-c2c(CN3CC(F)(F)C3)cnn2-c2ccc(C#N)cc2)c(=O)n(C)c(=O)n1-c1cccc(C(F)(F)F)c1` [Example 305], the IC50 was 22 nM.
